Key:
[1] = molecular target: T1, SCD (Rattus norvegicus, UniProt P07308); assay: Measurement of SCD inhibitory activity using microsome (TLC detection system); format: biochemical; conditions: rat liver microsome (20 μg), 15 min, [14C] stearoyl-CoA, test compound (10 mM) diluted to 3/1000 with 3× buffer, 10 μL in 30 μL reaction
T1 construct: an enzyme reaction using rat liver microsome (20 μg) was performed for 15 min; from tissue; host or cells: rat liver microsome fraction
T1 sequence (P07308 1-358): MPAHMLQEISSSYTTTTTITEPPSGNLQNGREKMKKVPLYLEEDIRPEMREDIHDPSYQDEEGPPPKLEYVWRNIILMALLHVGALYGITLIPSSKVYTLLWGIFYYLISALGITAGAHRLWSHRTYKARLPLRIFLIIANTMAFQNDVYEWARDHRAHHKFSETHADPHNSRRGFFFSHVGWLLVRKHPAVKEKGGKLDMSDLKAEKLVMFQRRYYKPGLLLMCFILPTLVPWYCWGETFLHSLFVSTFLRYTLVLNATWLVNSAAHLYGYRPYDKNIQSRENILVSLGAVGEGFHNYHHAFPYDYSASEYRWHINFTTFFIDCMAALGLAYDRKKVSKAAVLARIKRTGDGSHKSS
Protocol: (Test Method: Measurement of SCD Inhibitory Activity Using Microsome (TLC Detection System))
A test compound (10 mM) diluted with DMSO in advance was secondarily diluted to 3/1000 with 3× buffer (300 mmol/L NaH2PO4 [pH 7.4], 450 mM KCl, 30 mM NaF, 9 mM MgCl2, 4.5 mM glutathione [reduced form], 0.3% BSA [fatty acid free, SIGMA]). The test compound (10 μL) diluted with the assay buffer was dispensed to a PP 96-deep well block, and a microsome fraction (10 μL) diluted with a microsome buffer was added thereto. The enzyme reaction was started by the addition of 10 μL of [^14C] stearoyl-CoA (American Radiolabeled Chemicals [ARC], Inc.) diluted to 10 μCi/mL with 9 mmol/L NADH. For evaluation of the compound, an enzyme reaction using rat liver microsome (20 μg) was performed for 15 min. The reaction was quenched by the addition of 10 μL of 2.5N NaOH, a plate seal was applied, and the reaction mixture was incubated overnight in a dry heater set to 65° C. to allow saponification. Solvent extraction of fatty acid was based on the Bligh&Dyer method (1). Formic acid:methanol:chloroform (1:6:3) (200 μL) was added, the state of single layer was maintained, the mixture was sufficiently stirred, and pure water (120 μL) was added to allow separation into two layers. The lower chloroform layer (10 μL) was spotted on reversed-phase TLC plate (RP-18, 1154230001, Merck Japan, Ltd.) and developed with acetonitrile:pure water:acetic:acid (95:4.5:0.5). The TLC plate was dried and transferred onto an Imaging Plate (Fuji Photo Film Co., Ltd.) for not less than 5 hr. For detection, BAS-5000 (Fuji Photo Film Co., Ltd) was used and the obtained spot images were converted to numerical values using Multi Gauge Ver2.3 (Fuji Photo Film Co., Ltd), based on which the SCD activity inhibitory rate (%) was determined.

[2] = test system: Diet-Induced Obesity (DIO) Model Mouse; assay: Antiobesity action on diet-induced obesity (DIO) model mouse: liver unsaturation index number (C18:1/C18:0); format: in vivo; conditions: liver C18:1/C18:0 ratio, 0.1 mg/kg body weight by gavage for 4 weeks, n=7
From the text: Male C57BL/6J mice (6-week-old) were purchased from CLEA Japan, Inc. The mice were divided into two groups, and a high fat diet (Research Diets, Inc.; solid D12451) was given to one group and a general feed for rearing and breeding (CLEA Japan, Inc.; solid CE-2) was given to the other group.
Each group was reared for 4 months under full feeding, and divided into a diet-induced obesity model group and a general feed group using the body weight and plasma triglyceride concentration as indices. […] of a 0.5% methylcellulose suspension of the compound of Example 15 (0.1 mg/kg body weight) was administered to each of the diet-induced obesity model group and the general feed group by gavage for 4 weeks (each group n=7). […] The body weight of each group was measured during the dosing period. […]
The liver total lipid sample extracted by the above-mentioned procedure was labeled using an ester type fatty acid labeling reagent (YMC). The labeled sample was dissolved in methanol (5 μL) and analyzed using YMC-Pack FA (6.0Φ×250 mm), CH3CN:H2O:0.1% TFA (850:150:2) as a mobile phase at a flow rate of 1.2 mL/min. The peak area of each fatty acid in the sample was determined as a C18:1/C18:0 ratio from the peak area of each standard product and used as an unsaturation index number which is an index of the enzyme activity of SCD. […]

| inhibition at 10 µM ([1]; read-out: SCD activity inhibitory rate (%)) [%] | SCD activity inhibitory rate (%) [1] [%] | SMILES | unsaturation index number (mean ± SD) ([2]; diet-induced obesity model group) | unsaturation index number (mean ± SD) ([2]; general feed group) |
| --- | --- | --- | --- | --- |
| 100 | – | Cc1nsc(-c2ccc(N3CCC4(C3)OCc3ccccc34)nn2)n1 (stereo not shown) [Example 15, 1′-[6-(3-methyl-1,2,4-thiadiazol-5-yl)pyridazin-3-yl]-3H-spiro[2-benzofuran-1,3′-pyrrolidine]] | 43.886 ± 2.0318 | 29.017 ± 1.2254 |
| – | 100 | Cc1noc(-c2ccc(N3CCC4(COc5ccccc54)C3)nn2)n1 (stereo not shown) [Example 179 (short retention time), 1′-[6-(3-methyl-1,2,4-oxadiazol-5-yl)pyridazin-3-yl]spiro[1-benzofuran-3,3′-pyrrolidine]] | – | – |

Source: patent publication US8575167B2, “Spiro compounds having stearoyl-CoA desaturase action” (Takeda Pharmaceutical Company Limited, priority 2007, dated 2013)
